# Reference: US20130310347A1, “MULTI-MODALITY MOLECULAR IMAGING HIGH-THROUGHPUT ASSAY FOR IDENTIFYING HEAT SHOCK PROTEIN 90 (HSP90) INHIBITORS” (The Board of Trustees of the Leland Stanford Junior …, priority 2012, published 2013)
# Tests used:
# Hsp90 client proteins = assay: Western blotting of Hsp90 client proteins in normal MEF cells; format: cell-based; conditions: normal mouse embryonic fibroblasts
# Source text: CP9 had no effect on the expression of the Hsp90 client proteins in normal mouse embryonic fibroblasts (MEF) cells (FIG. 10C).
# Hsp90α/p23 interactions = molecular target: T1, Hsp90α/p23 interactions (Homo sapiens, UniProt P07900); assay: RL/FL bioluminescence imaging of 293T xenografts in living mice; format: in vivo; conditions: CP9 80 mg/kg i.p.
# T1 construct: expressed in transfected cells; also with FL-eGFP reporter (293Tα-FG) and as xenografts in nude mice
# Method: (§1) Maximum radiance (photons/sec/cm^2/sr) from RL signals was normalized to that of FL signals at each site and at each time point to account for the effect of CP9 on cell proliferation. The RL/FL ratios were normalized to that of time 0 h to monitor the individual change in Hsp90(α/β)/p23 interactions in each mouse over time. Results were expressed as mean±S.E.M for the control and treatment groups for Hsp90α/p23 (left panel) and Hsp90β/p23 interactions (right panel).
# (§2) To monitor the inhibition of Hsp90(α/β)/p23 interactions by CP9 in living mice, a second reporter (FL-eGFP) was introduced into the 293T cells stably expressing Hsp90(α/β)/p23 split RL reporters (now referred as 293T(α/β)—FG cells). Although ^18F-FLT has also been used to monitor tumor cell proliferation in small animals by PET (Tseng et al., (2005) J. Nucl. Med. 46: 1851-1857), FL imaging was used because of the higher sensitivity and ease of performing sequentially with RL imaging for Hsp90(α/β)/p23 interactions. […] Baseline RL and FL signals in each implanted tumor were determined upon i.v. substrate injection.
# (§3) Based on experience with the Hsp90 inhibitors 17-AAG and PU-H71, CP9 (80 mg/kg) (n=5) was tested in animal experiments by i.p. injection with four doses at […] post baseline imaging (FIG. 7A). An equal volume of DMSO was injected into the carrier control group (n=5, FIG. 7B). Mice treated with 75 mg/kg PU-H71 (n=2) served as positive controls. Mice were re-imaged for Hsp90(α/β)/p23 interactions and cell proliferation via RL (FIG. 5B, left panels) and FL (FIG. 5B, right panels) imaging at the time points indicated, respectively. To account for the effect of cell number on Hsp90(α/β)/p23 interactions, RL signals were normalized to FL signals for each tumor at each time point, prior to normalization to that of time 0 h.
# (§4) Mice were gas anesthetized using isofluorane (2% in 100% oxygen, 1 L/min) during all injection and imaging procedures and kept at 37° C. Mice were imaged using a cooled CCD camera (IVIS 200, Caliper Life Sciences, Mountain View, Calif.). […] Baseline RL activities in the implanted tumors in living mice were determined by i.v. injection of 30 μg cltz (in 150 μl of 5% ethanol: 95% PBS) and image acquisition of 3 mins. After a 30 mins wait for RL signals to decay, FL activities were determined by i.v. injection of 163 μg of D-Luc in 100 μl PBS with image acquisition of 10 sequences for 15 sec each to obtain the peak max radiance. […] Maximum radiance of RL was divided by that of FL signals at each time point, prior to normalization to that of time 0 hr for each individual mouse, and expressed as average radiance±S.E.M for each treatment group.
# Hsp90β/p23 interactions = molecular target: T2, Hsp90β/p23 interactions (Homo sapiens, UniProt P08238); assay: as above; format: in vivo; conditions: CP9 80 mg/kg i.p., p>0.05
# T2 construct: expressed in transfected cells; also with FL-eGFP reporter (293Tβ-FG) and as xenografts in nude mice
# Method: as §1, §2, §3, §4
# [1] = tested on: 293T Hsp90(α/β)/p23-FG xenografts; assay: 18F-FDG small animal PET/CT of tumor glucose metabolism; format: in vivo, mice
# Method: FIG. 8B is a graph illustrating quantitation of the effect of CP9 on inhibition of glucose metabolism. The PET image of each mouse and each site at each time point was reconstructed and quantified using the OSEM 2D algorithm. The increase in max % ID/g at 43 h relative to 0 hr is shown as average±S.E.M. CP9 led to significant decrease in glucose metabolism, compared to carrier control treated mice (p<0.005).
# ^18F-FDG PET/CT has been used for repetitive and non-invasive monitoring of chemotherapy responses both in small animals and in humans (Aliaga et al., (2007) Mol. Imaging. Biol. 9: 144-150; de Geus-Oei et al., (2009) J. Nucl. Med. 50(Suppl 1): 43S-54S). Since CP9 inhibits glucose metabolism in cancer cells (FIG. 6B), its effect in the same cohort of living mice used for BLI (FIGS. 7A-7C) was monitored by small animal PET/CT imaging using ^18F-FDG. […] Baseline ^18F-FDG uptake in tumor-bearing mice was determined pre-treatment with four doses of carrier control (DMSO) or CP9 (80 mg/kg in DMSO) (FIG. 8A). The % max ID/g of ^18F-FDG uptake was determined by the OSEM2D method upon normalization of injected dose (Wiant et al., (2010) Med. Phys. 37: 1169-1182). The % increase in ^18F-FDG uptake at 43 h relative to 0 h was determined for each tumor site. […]
# T2 sequence (P08238 whole entry): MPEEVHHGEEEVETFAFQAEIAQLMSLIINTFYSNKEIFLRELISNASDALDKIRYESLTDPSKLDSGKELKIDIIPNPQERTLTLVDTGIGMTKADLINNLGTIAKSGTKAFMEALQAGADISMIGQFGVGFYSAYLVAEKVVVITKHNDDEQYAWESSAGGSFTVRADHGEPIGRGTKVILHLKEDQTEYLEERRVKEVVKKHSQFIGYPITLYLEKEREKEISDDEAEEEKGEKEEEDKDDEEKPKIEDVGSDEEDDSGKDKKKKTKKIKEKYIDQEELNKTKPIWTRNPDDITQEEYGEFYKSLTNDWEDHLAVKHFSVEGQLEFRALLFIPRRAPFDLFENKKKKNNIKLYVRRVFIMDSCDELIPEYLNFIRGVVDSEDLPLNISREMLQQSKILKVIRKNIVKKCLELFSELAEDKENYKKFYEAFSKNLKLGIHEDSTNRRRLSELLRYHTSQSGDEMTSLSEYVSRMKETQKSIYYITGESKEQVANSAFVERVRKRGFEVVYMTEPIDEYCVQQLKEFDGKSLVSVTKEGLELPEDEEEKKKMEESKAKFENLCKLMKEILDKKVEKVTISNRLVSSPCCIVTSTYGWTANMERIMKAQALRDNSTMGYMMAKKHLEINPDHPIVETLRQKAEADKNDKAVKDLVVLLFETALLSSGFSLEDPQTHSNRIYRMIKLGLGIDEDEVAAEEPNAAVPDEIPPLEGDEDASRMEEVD
smiles,measurement,setting,value
"Cc1cc(NC(=O)CSc2nc(-c3cccs3)cc(C(F)(F)F)n2)no1 [CP9, N-(5-methylisoxazol-3-yl)-2-(4-(thiophen-2-yl)-6-(trifluoromethyl)pyrimidin-2-ylthio)acetamide]",expression of Hsp90 client proteins,Hsp90 client proteins,no effect
same,"RL/FL ratio in Hsp90α/p23 xenografts, normalized to time 0 h",Hsp90α/p23 interactions; 14 h,122±39%
same,"RL/FL ratio in Hsp90α/p23 xenografts, normalized to time 0 h","Hsp90α/p23 interactions; 38 h, p<0.05 vs carrier control",79±19%
same,"RL/FL ratio in Hsp90β/p23 xenografts, normalized to time 0 h",Hsp90β/p23 interactions; 14 h,58±18%
same,"RL/FL ratio in Hsp90β/p23 xenografts, normalized to time 0 h",Hsp90β/p23 interactions; 38 h,83±42%
same,decrease in 18F-FDG uptake in tumors relative to carrier control treated mice,"[1]; CP9 treatment, 43 h",40%
same,decrease in 18F-FDG uptake in tumors at 43 h relative to 0 h,"[1]; four doses CP9 80 mg/kg in DMSO, n=10 tumors, p<0.005 vs carrier control",16±9%
